Results: EP1903028A1, “Conjugates of glutamate and NMDA receptor channel blockers without excito-toxic effects” (Tschollar,, Werner, priority 2006, dated 2008)
Read-outs that look alike come from different tables or passages of the source. Blank lines part the entries; values can stand above or below the compound they belong to.

Columns and labels:
aminopeptidase A = target: T1, aminopeptidase A (Rattus norvegicus, UniProt P50123); format: in vitro ADME
T1 construct: Hippocampi were removed on ice and coronal slices chopped (0.40 mm thick); from tissue; host or cells: rat hippocampal slices
T1 sequence (P50123 whole entry): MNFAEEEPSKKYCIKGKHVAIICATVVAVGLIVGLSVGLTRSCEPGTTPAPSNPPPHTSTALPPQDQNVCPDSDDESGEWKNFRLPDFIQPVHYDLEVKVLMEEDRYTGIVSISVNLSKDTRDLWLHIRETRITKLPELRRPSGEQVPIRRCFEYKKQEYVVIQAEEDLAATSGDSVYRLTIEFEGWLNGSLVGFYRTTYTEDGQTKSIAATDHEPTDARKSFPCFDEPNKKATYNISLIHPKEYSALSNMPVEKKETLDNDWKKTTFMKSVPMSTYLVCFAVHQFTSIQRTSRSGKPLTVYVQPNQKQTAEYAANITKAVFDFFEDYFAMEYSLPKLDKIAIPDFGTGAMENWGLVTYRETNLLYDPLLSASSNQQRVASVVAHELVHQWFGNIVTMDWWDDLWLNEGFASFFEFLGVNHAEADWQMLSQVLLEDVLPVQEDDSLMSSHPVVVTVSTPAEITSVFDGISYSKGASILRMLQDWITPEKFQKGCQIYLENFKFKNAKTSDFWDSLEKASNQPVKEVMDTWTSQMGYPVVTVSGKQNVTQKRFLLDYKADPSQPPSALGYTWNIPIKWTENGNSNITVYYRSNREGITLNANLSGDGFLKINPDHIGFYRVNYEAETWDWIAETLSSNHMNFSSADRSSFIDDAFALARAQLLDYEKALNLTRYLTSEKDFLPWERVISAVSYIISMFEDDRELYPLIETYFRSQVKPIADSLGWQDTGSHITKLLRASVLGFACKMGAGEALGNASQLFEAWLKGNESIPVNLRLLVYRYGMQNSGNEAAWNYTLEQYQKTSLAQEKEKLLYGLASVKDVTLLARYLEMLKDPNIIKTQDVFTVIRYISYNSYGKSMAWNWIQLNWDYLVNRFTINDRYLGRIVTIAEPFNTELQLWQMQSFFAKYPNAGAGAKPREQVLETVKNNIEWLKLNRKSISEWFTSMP
Description: Animals were housed in plastic cages, with free access to standard laboratory food and water, under controlled conditions of lighting, humidity and temperature. Rats were killed by decapitation and brains were quickly removed and immediately transferred in ice-cold artificial cerebrospinal fluid (aCSF) having the following composition (mM):125 NaCl, 3 KCl, 1.2 CaCl2, 1.2 MgSO4, 1 NaH2PO4, 22 NaHCO3 and 10 glucose (aerated with 95% O2 and 5% CO2 at 37°C), pH 7.2-7.4. Hippocampi were removed on ice and coronal slices chopped (0.40 mm thick). Slices were then incubated for 1 h in the presence of a 95% O2and 5% CO2 current (37°C). After washing with fresh aCSF (37°C), slices were transferred to a modified 24 chamber's cell culture well (2 slices per chamber) adapted to accept a constant current of 95% O2 and 5% CO2 all experiment time long. 2 ml aCSF was present in each chamber. Some experiments were performed in a modified aCSF containing 1mM EGTA in the absence of Ca^2+ ions. Drugs were added immediately before slices. After 1h incubation at 37°C, 80 µl aCSF per chamber was drawn in order to evaluate the metabolization time-course. After 3h incubation the experiment ended with a new 80 µl drawing.
Rat hippocampal slices, incubated in physiological conditions (95% 02; 5% CO2 at 37°C, pH 7.2-7.4), metabolized Compound 1 ((S)-4-amino-5-[(4,4-dimethylcyclohexyl)-amino]-5-oxo-pentanoic acid) into Compound 2 (4,4-dimethyl-cyclohexamine) + glutamic acid. After 1h incubation 2,5% ± 0,3% (n=2) Compound 1 was cleaved to yield Compound 2. After 3h incubation 9,0% ± 0,0% (n=2) Compound 1 was cleaved to Compound 2. In the presence of 3 µM amastatin, a selective inhibitor of aminopeptidase A, the cleavage of Compound 1 at 1h and 3h was reduced to 0,5% and 2,0%, respectively (see Figure 2). […] Since aminopeptidase A is a Ca++-dependent enzyme, the cleavage of Compound 1 was then examined under Ca++ -free conditions. In the absence of Ca++ ions, Compound 1 cleavage was inhibited by 76% at 1h and 3h. Aminopeptidase A therefore appears to be the principal enzyme responsible for the cleavage of Compound 1 into Compound 2 plus glutamate.

rats [1] = test: Radial maze learning test; format: in vivo; conditions: for test acquisition in the radial maze: Compound 1: 1-30 mg/kg, versus control animals
Description: In another experiment of learning, a radial maze test was used. The radial maze consisted of eight arms radiating from a centre platform. The platform was 40 cm in diameter and the eight arms were 60 cm long, 13 cm wide, with walls 10 cm high. The surface of the maze was elevated 50 cm from the floor. Plastic food cups (4 cm in diameter) were at the end of each arm. One 50 mg micro-pellet was placed in a cup at the beginning of each trial. In the training session, the rat was placed in the centre of the platform facing arm #4 and allowed to freely explore the maze. The animal was left in the maze until it ate all of the 24 pellets placed three per arm.

rats [2] = test: Scopolamine-induced memory impairment, passive avoidance; format: in vivo; conditions: Compound 1: 1 and 10 mg/kg, i.p.; significant (p<0.05) at 10 mg/kg
Description: (§1) The cleavage is inhibited by the specific aminopeptidase A inhibitor amastatin. The amount of Compound 2 produced by cleavage of Compound 1 after 3 hours incubation with hippocampal slices is shown. AMA=Amastatin. • FIGS. 3A,B show inhibition of NMDA function by Compound 2. […] Effects of Compound 2 on [^3H]MK-801 binding enhanced by glycine (panel A), glutamate (panel B) and spermine (panel C). […] The 3H-MK-801 concentration was approx. 3 nM in all the experiments. […] Effect of Compound 1 administered i.p. twice a day (30 min before session and at 5.00 p.m.) for 4 days. […] Data are Mean ± s.e.m. of the efficiency indexes grouped in 2-day intervals. […] Values represent the median latency (sec) to enter the shock compartment and interquartile ranges. †P <0.05 vs. scopolamine + (FS), ‡P < 0.01 vs. saline + (FS) (log rank test). […] Values represent the median latency (s) to enter the shock compartment and interquartile ranges. **P < 0.01 vs. vehicle no ECS, †P< 0.05 and ‡P< 0.01 vs. vehicle + ECS (log rank test).
In this experiment, Compound 1 was tested to determine whether it could reverse scopolamine-induced memory impairment in a passive-avoidance paradigm in rats.

rats [3] = test: Lever-holding operant behaviour (Skinner Box); format: in vivo; conditions: 3-10-30 mg/kg i.p., 14 days, p=0.007 versus control
Description: In a further test of learning, lever-holding operant behaviour was tested in a standard rodent operant conditioning chamber (Skinner Box). Rats were trained to press the lever for water reward on a continuous reinforcement schedule, for which each lever pressing was rewarded. Daily sessions lasted 30 min and were performed under a green light. Water was restricted to a 30 min post-session period. After two days of stabilisation, rats were subjected to a visual discrimination schedule, in which a green light signalled the availability of the reinforcement for 60 sec, followed by a 30 sec interval with no reinforcement. Daily sessions lasted 30 min and were repeated for 14 days. Data were expressed as the Efficiency Index, which is a ratio of reinforced (correct responses during a session) to non-reinforced responses.

rats [4] = test: Step-through active avoidance test (acquisition of active avoidance behaviour); format: in vivo; conditions: for percent of conditioned avoidance: Compound 1: 3 and 10 mg/kg i.p. twice a day, 5 days, p<0.001
Description: as §1
The acquisition of active avoidance behaviour was evaluated during one 40-trial daily session for 5 consecutive days. Compound 1, when given at doses of 3 and 10 mg/kg, increased the percent of conditioned avoidance (see Figure 6A).

CA1 pyramidal neurons = test: NMDA excito-toxicity in hippocampal slices in vitro (area of CA1 pyramidal neurons); format: cell-based, rat; conditions: 100 µM NMDA, compound added 15 min prior, 45 min incubation
Description: In this experiment, slices were obtained from hippocampi of young (8 day old) rats. After one hour of pre-incubation, NMDA was added to give a final concentration of 100 µM. Either Compound 1 or Compound 2 was added 15 min prior to NMDA and the incubation was carried out for 45 min. Three slices of each sample were collected and fixed with glutaraldehyde (5%). After embedding and freezing, sections (4 µm) were stained with Cresyl violet. Neuronal injury was studied with light microscopy using an imaging analyser (Kontron, KS300). The area occupied by CA1 pyramidal neurons was measured in an analyser-defined field. The pattern of hippocampal neuro-degeneration following NMDA-stimulation consisted of a significant decrease in neuronal nuclei area. […] In contrast, Compound 1 had no effect on NMDA-induced neuronal damage (results not shown).

[5] = tested on: gerbils subjected to bilateral occlusion of the carotid arteries; test: Neuro-protection after bilateral occlusion of the carotid arteries in vivo; design: species or system Mongolian gerbils
Description: This experiment investigated the neuro-protective effects of Compound 2 in gerbils subjected to bilateral occlusion of the carotid arteries. Mongolian gerbils were anaesthetised with halothane and the right and left common carotid arteries were occluded for a period of 5 min. […] The brains were cut into 10 µm-thick sections in the area of the hippocampus and sections were stained with cresyl violet. Quantitative assessment of area occupied by CA pyramidal neurons was performed using an image analyser (Kontron, KS300). For each animal, measurements were made in a defined field from both hippocampi in 4 coronal sections. The raw data were represented by the mean of 8 measures. The pattern of hippocampal neuro-degeneration following ischemia consisted of a significant decrease of neuronal nuclei area.
Compound 2 at a dose of 16 mg/kg, was 100% protective (see Figure 5).

[6] = Electroconvulsive shock-induced memory impairment; format: in vivo; conditions: Compound 1: 3, 10 and 30 mg/kg; significant at 10 and 30 mg/kg (P <0.05, P <0.01)
Description: as §1
In another model of memory impairment, electroconvulsive shock was employed as a memory de-stabilizer. […] For doses of 10 and 30 mg/kg the effect was statistically significant (P <0.05 and P <0.01, respectively) (see Figure 7B).

in vivo = conditions: rat, 30 mg/kg
Description: The average (± s.e.m.) plasma and cerebrospinal fluid levels of Compound 1, after a single i.p. or oral administration of 30 mg/kg plotted against time (h), are given in Figure 1. Compound 1 appeared in plasma shortly after both oral and i.p. administration, with a lag-time of 0.12 h. […] Compound 1 crossed the blood-CSF barrier very rapidly, showing lag times of 0.1-0.23 h after oral and i.p. administration, respectively. The maximum concentration of Compound 1 in the CSF was reached 45-60 min after oral and i.p. administration. […] Compound 1 therefore efficiently crosses into the CSF in rats.

NMDA receptor = test: [3H]MK-801 binding to washed rat cortical membranes enriched for NMDA receptors; conditions: binding enhanced by glycine, glutamate or spermine; 10, 100, 1000 µM Compound 2; approx. 3 nM 3H-MK-801
Description: as §1
MK-801 (dizocilpine) is an open-channel ligand of the NMDA Ca channel. Washed rat cortical membranes enriched for NMDA receptors were incubated with increasing concentrations of the co-agonists glycine or glutamate, or the positive modulator spermine, and Compound 2. The binding of ^3H MK801 was then measured. […]

NMDAR (subtype NR1/NR2A) = target: T2, NMDAR (subtype NR1/NR2A) (Homo sapiens, UniProt Q05586+Q12879); test: Glutamate-evoked currents in NMDA receptor-transfected oocytes; format: cell-based; conditions: glutamate 10uM, 100uM glycine, read-out: IC50, inhibition of glutamate-stimulated Ca current
T2 construct: expressed in transfected cells
T2 sequence (Q12879 23-1464, other chains not shown): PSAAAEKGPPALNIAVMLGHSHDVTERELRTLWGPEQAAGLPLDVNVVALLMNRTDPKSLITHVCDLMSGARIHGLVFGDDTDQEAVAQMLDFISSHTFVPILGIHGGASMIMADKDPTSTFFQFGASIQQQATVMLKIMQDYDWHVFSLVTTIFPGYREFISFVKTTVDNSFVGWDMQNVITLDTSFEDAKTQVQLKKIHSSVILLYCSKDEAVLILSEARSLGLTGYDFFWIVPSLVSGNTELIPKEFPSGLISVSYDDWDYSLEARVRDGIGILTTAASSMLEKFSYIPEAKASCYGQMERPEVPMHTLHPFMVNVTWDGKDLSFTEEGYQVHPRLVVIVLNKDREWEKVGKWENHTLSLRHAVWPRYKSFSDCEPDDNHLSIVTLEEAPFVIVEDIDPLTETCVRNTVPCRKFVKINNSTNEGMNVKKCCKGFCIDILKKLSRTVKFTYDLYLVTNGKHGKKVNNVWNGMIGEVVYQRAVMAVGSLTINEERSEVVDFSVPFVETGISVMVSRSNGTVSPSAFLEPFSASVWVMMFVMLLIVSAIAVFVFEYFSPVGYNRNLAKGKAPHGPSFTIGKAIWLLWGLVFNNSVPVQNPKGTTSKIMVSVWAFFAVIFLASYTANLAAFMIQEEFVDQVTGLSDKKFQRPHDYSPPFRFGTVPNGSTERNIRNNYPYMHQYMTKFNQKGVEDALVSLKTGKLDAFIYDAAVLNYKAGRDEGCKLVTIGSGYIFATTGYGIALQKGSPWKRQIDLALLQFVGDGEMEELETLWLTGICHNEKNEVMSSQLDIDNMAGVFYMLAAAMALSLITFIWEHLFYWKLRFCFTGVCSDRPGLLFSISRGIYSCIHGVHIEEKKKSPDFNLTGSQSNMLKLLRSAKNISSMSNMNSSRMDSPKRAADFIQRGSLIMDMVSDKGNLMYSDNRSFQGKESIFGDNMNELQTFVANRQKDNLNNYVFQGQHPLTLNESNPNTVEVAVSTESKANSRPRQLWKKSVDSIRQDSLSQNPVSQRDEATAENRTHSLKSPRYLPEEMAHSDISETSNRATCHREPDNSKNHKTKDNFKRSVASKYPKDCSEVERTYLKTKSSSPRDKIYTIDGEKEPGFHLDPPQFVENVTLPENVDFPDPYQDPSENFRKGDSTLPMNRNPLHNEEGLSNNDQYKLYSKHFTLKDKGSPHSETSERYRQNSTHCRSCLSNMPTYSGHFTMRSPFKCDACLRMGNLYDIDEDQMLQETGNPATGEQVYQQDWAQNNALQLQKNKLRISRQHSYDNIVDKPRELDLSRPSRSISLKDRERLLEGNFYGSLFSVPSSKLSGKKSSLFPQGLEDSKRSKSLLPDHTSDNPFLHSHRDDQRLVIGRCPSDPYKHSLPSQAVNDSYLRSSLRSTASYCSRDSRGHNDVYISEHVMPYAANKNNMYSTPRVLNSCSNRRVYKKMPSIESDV
Description: Glutamate stimulates an inward Ca current through the NMDA receptor channel by binding to a specific ligand-binding site at the NR1/NR2 subunit interface and opening the ion channel to the influx of calcium. Glutamate (10uM) was added to oocytes transfected with the NMDAR (subtype NR1/NR2A) in the presence of 100uM glycine and increasing amounts of Compound 2.

IC50 (aminopeptidase A; rat hippocampal slices, read-out: IC50, inhibition of cleavage of Compound 1): 0.3 µM
Compound: CC(C)C[C@@H](N)[C@H](O)C(=O)N[C@H](C(=O)N[C@H](C(=O)N[C@@H](CC(=O)O)C(=O)O)C(C)C)C(C)C [Amastatin, reference compound]

Compound: CC1(C)CCC(NC(=O)[C@@H](N)CCC(=O)O)CC1 [Compound 1, (S)-4-amino-5-(4,4-dimethylcyclohexylamino)-5-oxopentanoic acid]
number of sessions to reach acquisition criterion (rats [1]; 10 and 30 mg/kg (P <0.05, P <0.01, respectively)): decreased | test acquisition in the radial maze (rats [1]): faster test acquisition | retention latency, reversal of scopolamine-induced memory impairment (rats [2]): dose-dependently increased latency | percent of reinforced responses (Efficiency Index) (rats [3]): increased in a dose-dependent manner | percent of conditioned avoidance (rats [4]): increased | uncoordinated escape responses or spontaneous inter-trial responses (rats [4]; rat, in vivo): did not affect | effect on NMDA-induced neuronal damage (CA1 pyramidal neurons): no effect | mortality ([5]; 50mg/kg, ischemia alone 50% 7-day mortality): zero | Compound 1 cleavage inhibited (aminopeptidase A; in the absence of Ca++ ions, at 1h and 3h): 76% | Compound 1 cleaved to yield Compound 2 (aminopeptidase A; rat, 1 h, pH 7.2): 2,5% ± 0,3% | Compound 1 cleaved to Compound 2 (aminopeptidase A; rat, 3 h, pH 7.2): 9,0% ± 0,0% | step-down latency after electroconvulsive shock [6]: dose-dependently increased step-down latency | Tmax (in vivo): 1 h | plasma lag-time (in vivo): 0.12 h | time to maximum concentration in the CSF (in vivo): 45 to 60 min | Kp (in vivo; ip): 0.48 | lag time for crossing the blood-CSF barrier (in vivo; ip): 0.23 h | Kp (in vivo; po): 0.62 | lag time for crossing the blood-CSF barrier (in vivo; po): 0.1 h

Compound: CC1(C)CCC(N)CC1 [Compound 2, 4,4-dimethyl-cyclohexylamine]
inhibition of MK-801 binding (NMDA receptor): inhibited MK-801 binding in a dose-dependent fashion | IC50 (NMDAR (subtype NR1/NR2A); 100 millivolts): 30 µM | IC50 (NMDAR (subtype NR1/NR2A); -60 millivolts): 117 µM | test acquisition in the radial maze (rats [1]): without effect | retention latency, reversal of scopolamine-induced memory impairment (rats [2]): unable to reverse | percent of conditioned avoidance (rats [4]): without activity | IC50 (CA1 pyramidal neurons; Rattus norvegicus, Pyramidal neuron, slices of 8 day old rats, read-out: IC50, prevention of NMDA-induced damage): 189 ± 42.4 µM | protective (7-day mortality) ([5]; 16 mg/kg, 1 hour prior to ischemia, ischemia alone 50% mortality): 100% | protection from neuronal degeneration and death ([5]; administered 1 hour prior to ischemia): dose-dependently protected | step-down latency after electroconvulsive shock [6]: without effect
